Earlier results in patent publication US6727058B2, “Intergrase assay” (priority 1998, dated 2004).

Target: lacR (Escherichia coli, UniProt P03023)
Details: association constant; Barkley & Bourgeios 1980

Chain of lacR (P03023 whole entry): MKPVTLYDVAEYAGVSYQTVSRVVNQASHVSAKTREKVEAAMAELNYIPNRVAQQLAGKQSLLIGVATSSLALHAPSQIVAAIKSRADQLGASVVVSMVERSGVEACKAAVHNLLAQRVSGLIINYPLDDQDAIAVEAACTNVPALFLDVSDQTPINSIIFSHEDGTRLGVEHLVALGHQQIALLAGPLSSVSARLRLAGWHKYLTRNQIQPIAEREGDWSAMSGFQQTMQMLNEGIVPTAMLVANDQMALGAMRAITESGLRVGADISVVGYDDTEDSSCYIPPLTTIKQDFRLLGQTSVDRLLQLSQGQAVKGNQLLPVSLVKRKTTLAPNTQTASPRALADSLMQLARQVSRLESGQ

**Q.** Which “ka of lacR complexing IPTG” value does the source give for `CC(C)S[C@@H]1O[C@H](CO)[C@H](O)[C@H](O)[C@H]1O` [IPTG] here?
**A.** The value was “≈ 10^6 M^−1”.
